Data taken from patent US20220168427A1 (Ranok Therapeutics (Hangzhou) Co. Ltd., priority 2019, published 2022).

What was measured:
MV4-11 cells = test: MV4-11 Cell Cytotoxicity Assay; type: cell-based, human; settings: human, MV4-11 cells, CCK-8
Source text: % Inhibition=100−(D−B)/(S−B)*100%.
S: The absorbance of the maximum (cells with DMSO)
B: The absorbance of the minimum (medium with DMSO)

HSP90α = HSP90α (Homo sapiens, UniProt P07900); test: HSP90α Binding Fluorescent Polarization (FP) Assay; settings: competition with FITC-geldanamycin; read-out: HSP90 Binding Potency
How it was run: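 Competitive FP assay in which compound displaces FITC-geldanamycin from recombinant HSP90α (28 μg/ml before addition) in BSA-containing buffer. Compounds in 3-fold series from 40 μM to 2.0 nM (dilution-plate concentrations), tested in duplicate. Readings after 30, 60 and 120 min at 25 °C; background-subtracted mP fitted to four-parameter log[inhibitor]-response curve.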

BRD4 (BD1+BD2) = target: T1, BRD4 (BD1+BD2) (Homo sapiens, UniProt O60885); settings: read-out: BRD4 Binding Potency
T1 construct: 1.8 μg/ml recombinant BRD4 (BD1+BD2 domains) protein

CCNC(=O)c1nnc(-c2cc(C(C)C)c(O)cc2O)n1-c1ccc(CC2CCN(CC3CCN(C(=O)C[C@@H]4N=C(c5ccc(Cl)cc5)c5c(sc(C)c5C)-n5c(C)nnc54)CC3)CC2)cc1 [Compound 90, (S)-4-(4-((1-((1-(2-(4-(4-chlorophenyl)-2,3,9-trimethyl-6H-thieno[3,2-f][1,2,4]triazolo[4,3-a][1,4]diazepin-6-yl)acetyl)piperidin-4-yl)methyl)piperidin-4-yl)methyl)phenyl)-5-(2,4-dihydroxy-5-isopropylphenyl)-N-ethyl-4H-1,2,4-triazole-3-carboxamide]
IC50 at 72 h (MV4-11 cells): < 0.1 µM
IC50 (HSP90α): 0.1 to 1 µM
IC50 (BRD4 (BD1+BD2)): 0.1 to 1 µM

Cc1nn(-c2ccc(C(N)=O)c(NCCOCCOCCNC(=O)C[C@@H]3N=C(c4ccc(Cl)cc4)c4c(sc(C)c4C)-n4c(C)nnc43)c2)c2c1C(=O)CC(C)(C)C2 [Compound 21, 2-((2-(2-(2-(2-((6S)-4-(4-chlorophenyl)-2,3,9-trimethyl-6H-thieno[3,2-f][1,2,4]triazolo[4,3-a][1,4]diazepin-6-yl)acetamido)ethoxy)ethoxy)ethyl)amino)-4-(3,6,6-trimethyl-4-oxo-4,5,6,7-tetrahydro-1H-indazol-1-yl)benzamide, trifluoroacetic acid]
IC50 at 72 h (MV4-11 cells): 0.1 to 1 µM
IC50 (HSP90α): > 1 µM
IC50 (BRD4 (BD1+BD2)): > 1 µM

COc1cccc(-c2cc(C(=O)Nc3ccc(-c4ccc(OC5CCN(CC[C@@H]6N=C(c7ccc(Cl)cc7)c7c(sc(C)c7C)-n7c(C)nnc76)CC5)cc4O)cc3)ccc2OC)c1 [Compound 132]
IC50 at 72 h (MV4-11 cells): > 1 µM
IC50 (HSP90α): > 1 µM
IC50 (BRD4 (BD1+BD2)): > 1 µM

CCc1cc(-c2nnc(O)n2-c2ccc(CN3CCC(C(=O)N4CCC(CNC(=O)C[C@@H]5N=C(c6ccc(Cl)cc6)c6c(sc(C)c6C)-n6c(C)nnc65)C4)CC3)cc2)c(O)cc1O (stereo partly drawn) [Compound 77, 2-((6S)-4-(4-chlorophenyl)-2,3,9-trimethyl-6H-thieno[3,2-f][1,2,4]triazolo[4,3-a][1,4]diazepin-6-yl)-N-((1-(1-(4-(3-(5-ethyl-2,4-dihydroxyphenyl)-5-hydroxy-4H-1,2,4-triazol-4-yl)benzyl)piperidine-4-carbonyl)pyrrolidin-3-yl)methyl)acetamide, trifluoroacetic acid]
IC50 at 72 h (MV4-11 cells): 0.1 to 1 µM
IC50 (HSP90α): 0.1 to 1 µM
IC50 (BRD4 (BD1+BD2)): < 0.1 µM

CCc1cc(-c2nnc(C(=O)NCC(F)(F)F)n2-c2ccc(CC3CCN(Cc4ccc(CNC(=O)C[C@@H]5N=C(c6ccc(Cl)cc6)c6c(sc(C)c6C)-n6c(C)nnc65)cc4)CC3)cc2)c(O)cc1O [Compound 91, (S)-4-(4-((1-(4-((2-(4-(4-chlorophenyl)-2,3,9-trimethyl-6H-thieno[3,2-f][1,2,4]triazolo[4,3-a][1,4]diazepin-6-yl)acetamido)methyl)benzyl)piperidin-4-yl)methyl)phenyl)-5-(5-ethyl-2,4-dihydroxyphenyl)-N-(2,2,2-trifluoroethyl)-4H-1,2,4-triazole-3-carboxamide, trifluoroacetic acid]
IC50 at 72 h (MV4-11 cells): < 0.1 µM
IC50 (HSP90α): 0.1 to 1 µM
IC50 (BRD4 (BD1+BD2)): 0.1 to 1 µM

CCCc1cc(C(=O)N2Cc3ccc(CN4CCN(C(=O)C[C@@H]5N=C(c6ccc(Cl)cc6)c6c(sc(C)c6C)-n6c(C)nnc65)CC4)cc3C2)c(O)cc1O [Compound 145, (S)-2-(4-(4-chlorophenyl)-2,3,9-trimethyl-6H-thieno[3,2-f][1,2,4]triazolo[4,3-a][1,4]diazepin-6-yl)-1-(4-((2-(2,4-dihydroxy-5-propylbenzoyl)isoindolin-5-yl)methyl)piperazin-1-yl)ethan-1-one]
IC50 at 72 h (MV4-11 cells): > 1 µM
IC50 (HSP90α): 0.1 to 1 µM
IC50 (BRD4 (BD1+BD2)): > 1 µM

CCc1cc(-c2nnc(O)n2-c2ccc(CNC(=O)C[C@@H]3N=C(c4ccc(Cl)cc4)c4c(sc(C)c4C)-n4c(C)nnc43)cc2)c(O)cc1O [Compound 56, 2-((6S)-4-(4-chlorophenyl)-2,3,9-trimethyl-6H-thieno[3,2-f][1,2,4]triazolo[4,3-a][1,4]diazepin-6-yl)-N-(4-(3-(5-ethyl-2,4-dihydroxyphenyl)-5-hydroxy-4H-1,2,4-triazol-4-yl)benzyl)acetamide]
IC50 at 72 h (MV4-11 cells): 0.1 to 1 µM
IC50 (HSP90α): 0.1 to 1 µM
IC50 (BRD4 (BD1+BD2)): 0.1 to 1 µM

Cc1sc2c(c1C)C(c1ccc(Cl)cc1)=N[C@@H](CC(=O)NCCOc1ccc(-n3c(S)nnc3-c3cc(C(C)C)c(O)cc3O)cc1)c1nnc(C)n1-2 [Compound 32, (S)-2-(4-(4-chlorophenyl)-2,3,9-trimethyl-6H-thieno[3,2-f][1,2,4]triazolo[4,3-a][1,4]diazepin-6-yl)-N-(2-(4-(3-(2,4-dihydroxy-5-isopropylphenyl)-5-mercapto-4H-1,2,4-triazol-4-yl)phenoxy)ethyl)acetamide]
IC50 at 72 h (MV4-11 cells): 0.1 to 1 µM
IC50 (HSP90α): 0.1 to 1 µM
IC50 (BRD4 (BD1+BD2)): > 1 µM

Cc1sc2c(c1C)C(c1ccc(Cl)cc1)=N[C@@H](CC(=O)N1CCC(CN[C@@H](C)C(=O)N[C@H](C(=O)N3CCC[C@H]3C(=O)Nc3snnc3-c3ccccc3)C3CCCCC3)CC1)c1nnc(C)n1-2 [Compound 129, (S)-1-((S)-2-((S)-2-(((1-(2-((S)-4-(4-chlorophenyl)-2,3,9-trimethyl-6H-thieno[3,2-f][1,2,4]triazolo[4,3-a][1,4]diazepin-6-yl)acetyl)piperidin-4-yl)methyl)amino)propanamido)-2-cyclohexylacetyl)-N-(4-phenyl-1,2,3-thiadiazol-5-yl)pyrrolidine-2-carboxamide]
IC50 at 72 h (MV4-11 cells): > 1 µM
IC50 (HSP90α): > 1 µM
IC50 (BRD4 (BD1+BD2)): > 1 µM

CCN(Cc1ccc(OCCCNC(=O)C[C@@H]2N=C(c3ccc(Cl)cc3)c3c(sc(C)c3C)-n3c(C)nnc32)cc1)Cc1ccc(-n2c(O)nnc2-c2cc(C(C)C)c(O)cc2O)cc1 [Compound 100, (S)-2-(4-(4-chlorophenyl)-2,3,9-trimethyl-6H-thieno[3,2-f][1,2,4]triazolo[4,3-a][1,4]diazepin-6-yl)-N-(3-(4-(((4-(3-(2,4-dihydroxy-5-isopropylphenyl)-5-hydroxy-4H-1,2,4-triazol-4-yl)benzyl)(ethyl)amino)methyl)phenoxy)propyl)acetamide, formic acid]
IC50 at 72 h (MV4-11 cells): < 0.1 µM
IC50 (HSP90α): 0.1 to 1 µM
IC50 (BRD4 (BD1+BD2)): 0.1 to 1 µM

Cc1sc2c(c1C)C(c1ccc(Cl)cc1)=N[C@@H](CC(=O)NCCOCCN1CCN(Cc3ccc(-n4c(O)nnc4-c4cc(C(C)C)c(O)cc4O)cc3)CC1)c1nnc(C)n1-2 [Compound 49, 2-((6S)-4-(4-chlorophenyl)-2,3,9-trimethyl-6H-thieno[3,2-f][1,2,4]triazolo[4,3-a][1,4]diazepin-6-yl)-N-(2-(2-(4-(4-(3-(2,4-dihydroxy-5-isopropylphenyl)-5-hydroxy-4H-1,2,4-triazol-4-yl)benzyl)piperazin-1-yl)ethoxy)ethyl)acetamide, trifluoroacetic acid, trifluoroacetic acid, trifluoroacetic acid, trifluoroacetic …]
IC50 at 72 h (MV4-11 cells): < 0.1 µM
IC50 (HSP90α): < 0.1 µM
IC50 (BRD4 (BD1+BD2)): 0.1 to 1 µM

CCc1cc(-c2nnc(O)n2-c2ccc(CC3CCN(CC4CCN(C(=O)C[C@@H]5N=C(c6ccc(Cl)cc6)c6c(sc(C)c6C)-n6c(C)nnc65)CC4)CC3)cc2)c(O)cc1O [Compound 88, (S)-2-(4-(4-chlorophenyl)-2,3,9-trimethyl-6H-thieno[3,2-f][1,2,4]triazolo[4,3-a][1,4]diazepin-6-yl)-1-(4-((4-(4-(3-(5-ethyl-2,4-dihydroxyphenyl)-5-hydroxy-4H-1,2,4-triazol-4-yl)benzyl)piperidin-1-yl)methyl)piperidin-1-yl)ethan-1-one, formic acid]
IC50 at 72 h (MV4-11 cells): < 0.1 µM
IC50 (HSP90α): 0.1 to 1 µM
IC50 (BRD4 (BD1+BD2)): 0.1 to 1 µM
